Biological target: T1, GLUT1 (Homo sapiens, UniProt P11166)
T1 sequence (P11166 1-492): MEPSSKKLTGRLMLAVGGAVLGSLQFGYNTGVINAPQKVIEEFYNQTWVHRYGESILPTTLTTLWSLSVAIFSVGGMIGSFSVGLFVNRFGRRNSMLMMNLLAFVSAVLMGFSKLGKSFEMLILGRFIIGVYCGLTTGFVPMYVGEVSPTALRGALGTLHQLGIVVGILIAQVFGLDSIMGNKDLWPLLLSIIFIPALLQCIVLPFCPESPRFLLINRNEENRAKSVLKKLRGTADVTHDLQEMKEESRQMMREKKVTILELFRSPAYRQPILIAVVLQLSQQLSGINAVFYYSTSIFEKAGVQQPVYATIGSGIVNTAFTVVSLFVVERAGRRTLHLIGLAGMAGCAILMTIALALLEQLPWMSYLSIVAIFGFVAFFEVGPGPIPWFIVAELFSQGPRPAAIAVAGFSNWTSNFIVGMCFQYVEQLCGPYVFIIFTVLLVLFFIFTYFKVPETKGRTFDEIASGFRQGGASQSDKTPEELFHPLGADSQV
Experiment: Indirect measurement of GLUT1 activity by quantification of intracellular ATP levels (glucose induced ATP increase)
Assay type: cell-based
Parameters: endogenous in cells; host or cells: DLD1 or CHO-K1
Settings: read-out: IC50 regarding glucose induced ATP increase (GLUT1 inhibition)
In short: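 Intracellular ATP was measured by CellTiter-Glo luminescence as an indirect readout of transport: glucose-driven for GLUT1, fructose-driven for GLUT2. DLD1 or CHO-K1 cells were used alongside an oxidative phosphorylation inhibitor. Beforehand, cells were held overnight in glucose-free 1% FCS medium to deplete ATP.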

SMILES | IC50
CNC(=O)c1ccc(Cn2nc(C)c(NC(=O)c3cc(C(F)(F)F)nc4ccc(Br)cc34)c2C)nc1 [Example 1070] | 20.2 nM
Cc1nn(Cc2ccccc2O)c(C)c1NC(=O)c1cc(C(F)(F)F)nc2c(Cl)cc(Cl)cc12 [Example 1071] | 21 nM
Cc1nn(CC2CCN(S(C)(=O)=O)CC2)c(C)c1NC(=O)c1cc(C(F)(F)F)nc2ccc(Br)cc12 [Example 1072] | 21 nM
Cc1nn(Cc2ccc(C(=O)NCC3CC3)cn2)c(C)c1NC(=O)c1cc(C(F)(F)F)nc2ccc(Br)cc12 [Example 1073] | 21.7 nM
Cc1nn(Cc2ccncc2C#N)c(C)c1NC(=O)c1cc(C(F)(F)F)nc2ccc(Br)cc12 [Example 1074] | 22.3 nM
COc1cc(C(=O)Nc2c(C(F)(F)F)nn(Cc3ccc(C#N)cc3)c2C)c2ccccc2n1 [Example 1075] | 22.5 nM
Cc1c(NC(=O)c2cc(C(F)(F)F)nc3ccc(Br)cc23)c(C(F)(F)F)nn1Cc1ccc(C(N)=O)cn1 [Example 1076] | 22.7 nM
Cc1nn(Cc2ccc(C(=O)NCCCCCO)cc2)c(C)c1NC(=O)c1cc(C(F)(F)F)nc2ccc(Br)cc12 [Example 1077] | 23.1 nM
CNC(=O)c1ccc(Cn2nc(C(F)(F)F)c(NC(=O)c3cc(C(F)(F)F)nc4ccc(Br)cc34)c2C)nc1 [Example 1078] | 23.9 nM
Cc1nn(Cc2ccc(C(=O)NCC3CC3)cc2)c(C)c1NC(=O)c1cc(C(F)(F)F)nc2ccc(Br)cc12 [Example 1079] | 24.4 nM
Cc1nn(Cc2ccc(C(=O)NCC(F)F)cc2)c(C)c1NC(=O)c1cc(C(F)(F)F)nc2ccc(Br)cc12 [Example 1080] | 25.8 nM
Cc1nn(Cc2ccc(C(=O)N3CCC[C@@H]3CO)cc2)c(C)c1NC(=O)c1cc(C(F)(F)F)nc2ccc(Br)cc12 [Example 1081] | 26.3 nM
Cc1nn(Cc2ncccc2C#N)c(C)c1NC(=O)c1cc(C(N)=O)nc2ccccc12 [Example 1082] | 28.2 nM
Cc1nn(Cc2ccc(C(=O)NCCCCO)cc2)c(C)c1NC(=O)c1cc(C(F)(F)F)nc2ccc(Br)cc12 [Example 1083] | 29.4 nM
Cc1nn(Cc2ccc(C(=O)NCCOc3ccccc3F)cc2)c(C)c1NC(=O)c1cc(C(F)(F)F)nc2ccc(Br)cc12 [Example 1084] | 30.8 nM
Cc1nn(Cc2ccc(C(=O)NCC(C)(C)O)cc2)c(C)c1NC(=O)c1cc(C(F)(F)F)nc2ccc(Br)cc12 [Example 1085] | 31.2 nM
Cc1nn(Cc2ccc(C#N)nc2)c(C)c1NC(=O)c1cc(C(N)=O)nc2ccc(F)cc12 [Example 1086] | 31.6 nM
Cc1nn(Cc2ccc(C(=O)N3CC4(CCS4(=O)=O)C3)cc2)c(C)c1NC(=O)c1cc(C(F)(F)F)nc2ccc(Br)cc12 [Example 1087] | 32.2 nM
Cc1nn(Cc2ccc(F)cc2)c(C)c1NC(=O)c1cc(C(F)(F)F)nc2ccc([N+](=O)[O-])cc12 [Example 1088] | 34.9 nM
COc1ccc(Cn2nc(C(F)(F)F)c(NC(=O)c3cc(OC)nc4ccccc34)c2C)cc1 [Example 1089] | 35.5 nM
Cc1nn(Cc2ccc(C(=O)NCCCn3ccnc3)cc2)c(C)c1NC(=O)c1cc(C(F)(F)F)nc2ccc(Br)cc12 [Example 1091] | 36 nM
Cc1nn(Cc2ccc(C#N)cc2)c(C)c1NC(=O)c1cc(N(C)C)nc2ccccc12 [Example 1092] | 37.9 nM
Cc1nn(Cc2ccc(C(=O)NCCO)cn2)c(C)c1NC(=O)c1cc(C(F)(F)F)nc2ccc(Br)cc12 [Example 1093] | 38.4 nM
Cc1nn(CC2CCN(S(C)(=O)=O)CC2)c(C)c1NC(=O)c1cc(C(N)=O)nc2ccccc12 [Example 1094] | 39.3 nM
Cc1nn(Cc2ccc(C(=O)NC(C)(CO)CO)cc2)c(C)c1NC(=O)c1cc(C(F)(F)F)nc2ccc(Br)cc12 [Example 1096] | 41.1 nM
C=Cc1ccc(Cn2nc(C)c(NC(=O)c3cc(C)nc4ccc(C)cc34)c2C)cc1 [Example 1097] | 41.3 nM
Cc1nn(Cc2ccc(C(=O)NCCNC(=O)C3CC3)cc2)c(C)c1NC(=O)c1cc(C(F)(F)F)nc2ccc(Br)cc12 [Example 1098] | 41.4 nM

From US20170037028A1 (BAYER PHARMA AKTIENGESELLSCHAFT, priority 2013, published 2017)
